Structures can show the parent of a compound that is named as a salt. Where two headings read alike, the source gives them in different places.
Legend:
Plasmodium yoelii = assay: In vivo activity against Plasmodium yoelii in mice (modified 4-day suppressive test)
Experimental: Compounds A and B were administered orally and intravenously, and compound (I) was administered orally only, in the manner described below.
The test method is a modified version of the 4-day suppressive test. The YM strain of P.yoelii was maintained in mice by twice weekly passage. Infected blood was collected and diluted with normal saline to give an inoculum of 3x10⁶ parasitized enythrocytes/ml. On the morning of Day 1 the test animals (male CD-1 mice weighing 18-20g) were infected intravenously via the tail vein with 0.1ml of inoculum/mouse.
Test compounds A, B and (I) were formulated by ball milling in 0.25% celacol with stainless steel balls. The total requirement was formulated at the beginning of a test and thereafter stored at 4°C.
Each test compound was administered orally (p.o.) to four or more usually five groups of mice, each group receiving a different dose level (dilution). A further group of mice was administered celacol only, as a control (ie. a total of 30 mice are used to obtain each ED₅₀). The mice were dosed orally in the late afternoon of Day 1 and in the early morning and late afternoon of days 2, 3 and 4, giving a total of seven doses in four days or 24 hours post-infection i.e. on day 2 when given as a single dose.
I.v. formulations of test Compounds A and B were prepared by dissolving the compound in water immediately before use, and administered via the tail vein as a single dose 24 hours post-infection, i.e. on day 2.
On the morning of day 5 smears of tail blood were prepared from each mouse and the parasitaemia counted. Data were analysed to yield ED₅₀ values by the best fit to a sigmoidal dose response curve.

Solubility in water = type: physicochemical; conditions: statement in words
[1] = Plasmodium yoelii, po, dosing schedule 1 x p.o. (single dose 24 hours post-infection), YM strain of P.yoelii, male CD-1 mice, parasitaemia on day 5, read-out: ED50

Molecule | ED50 (Plasmodium yoelii; [1]) | ED50 (Plasmodium yoelii; Plasmodium yoelii, po, dosing schedule 7 x p.o. (seven doses in four days), YM strain of P.yoelii, male CD-1 mice, parasitaemia on day 5, read-out: ED50) | ED50 (Plasmodium yoelii; Plasmodium yoelii, iv, 1 x i.v., calculated in terms of the amount of compound (I) administered, read-out: Weight adjusted ED50) | ED50 (Plasmodium yoelii; Plasmodium yoelii, iv, dosing schedule 1 x i.v. (single dose 24 hours post-infection, dissolved in water), YM strain of P.yoelii, male CD-1 mice, parasitaemia on day 5, read-out: ED50) | ED50 (Plasmodium yoelii; Plasmodium yoelii, po, 1 x p.o., calculated in terms of the amount of compound (I) administered, read-out: Weight adjusted ED50) | solubility in water (Solubility in water) | Weight adjusted ED50 (Plasmodium yoelii; 7 x p.o., calculated in terms of the amount of compound (I) administered) | ED50 (Plasmodium yoelii; dosing schedule 7 x p.o. (seven doses in four days), YM strain of P.yoelii, male CD-1 mice, parasitaemia on day 5)
O=C1C(O)=C([C@H]2CC[C@H](c3ccc(Cl)cc3)CC2)C(=O)c2ccccc21 [Compound (I), 2-[trans-4-(4-Chlorophenyl)cyclohexyl]-3-hydroxy-1,4-naphthoquinone, reference compound] | 0.09 mg/kg | 0.03 mg/kg | – | – | – | – | – | –
O=C1C(OP(=O)(O)O)=C([C@H]2CC[C@H](c3ccc(Cl)cc3)CC2)C(=O)c2ccccc21 [Compound (B), 3-[trans--4-(4-Chlorophenyl)cyclohexyl]-1,4-dioxo-2-naphthylphosphate N-methylglucosamine salt] | 0.23 mg/kg | – | 0.12 mg/kg | 0.27 mg/kg | 0.1 mg/kg | readily soluble in cold water | – | –
3-[trans-4-(4-Chlorophenyl)cyclohexyl]-1,4-dioxo-2-naphthylphosphate bis diethanolamine salt [Compound (A)] | – | – | – | – | – | – | 0.056 mg/kg | 0.1 mg/kg
